Data set [1] has as its system Human cervical cancer cells, Hela cells. The class given is cell-based. As for the experimental part:
Human cervical cancer cells, Hela cells, were dispersed with a DMEM medium containing 10% fetal bovine serum and spread to a 96-well plate, 8000 cells per well. After the cells were attached to the walls, Ir-cR5, Ir-cR8 and Ir-aR8 of 2, 4, 8, 16, 32, 64 and 128 μM and the corresponding oligoarginine polypeptides cR5, cR8 and aR8 were added and incubated for 24 h. The cell activity was detected by a thiazole blue method and the half-maximal inhibitory concentration (IC50) was calculated.

Data set [2] can be described thus: concentration in blood after tail vein injection, ICP-MASS of iridium. As to conditions: mouse, in vivo, BALB/c mice, 100 μL of 500 μM, read-out: elimination half-life in the blood. The protocol:
36 BALB/c mice were equally divided into two groups and injected with 100 μL of Ir-cR8 and Ir-cR8-HSA nanoparticles (500 μM) through tail veins, separately. After 0.5 h, 2 h, 4 h, 8 h, 24 h and 48 h, eyes were removed for blood sampling and centrifuged at 10000 rpm for 10 min. […] of centrifuged serum was added with 1 mL of high chlorine acid and 3 mL of aqua regia, digested at 260° C. for 2 h, and added with water to 10 mL. The content of metal iridium in the blood at each time point was detected by ICP-MASS.

The target in data set [3] is T1, human serum albumin (HSA) (human, UniProt P02768 25-609).
T1 construct: Dissolved in water and used in solution
Put plainly: dynamic light scattering of peptide-albumin assembly. As for the experimental part:
The detection was performed at 25° C. using the dynamic light scattering apparatus, and only the peaks of the formed polypeptide albumin nanoparticles were calculated.

Like-named read-outs stand apart in the source and are kept apart here. Where a SMILES comes first, the peptide text is derived from it. Some results are limits rather than exact numbers.

T1 sequence (P02768 25-609 limits assumed): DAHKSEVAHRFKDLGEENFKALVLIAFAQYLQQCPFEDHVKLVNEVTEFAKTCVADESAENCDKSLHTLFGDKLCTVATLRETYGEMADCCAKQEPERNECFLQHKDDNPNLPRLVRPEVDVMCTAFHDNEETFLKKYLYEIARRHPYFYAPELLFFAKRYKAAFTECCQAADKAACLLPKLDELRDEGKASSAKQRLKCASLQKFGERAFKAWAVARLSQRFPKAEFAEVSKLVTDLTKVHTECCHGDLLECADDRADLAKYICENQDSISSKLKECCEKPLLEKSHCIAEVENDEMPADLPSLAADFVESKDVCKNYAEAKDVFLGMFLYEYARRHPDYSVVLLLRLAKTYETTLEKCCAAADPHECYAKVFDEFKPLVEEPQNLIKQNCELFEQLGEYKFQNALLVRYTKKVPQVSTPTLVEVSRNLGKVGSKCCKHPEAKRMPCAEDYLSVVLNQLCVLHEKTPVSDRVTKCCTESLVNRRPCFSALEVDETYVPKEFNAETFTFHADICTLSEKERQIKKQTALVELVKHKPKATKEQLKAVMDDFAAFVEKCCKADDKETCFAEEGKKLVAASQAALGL

On to `CC(=O)N[C@@H](Cc1c[nH]cn1)C(=O)N[C@@H](Cc1c[nH]cn1)C(=O)N[C@@H](CCCNC(=N)N)C(=O)N[C@@H](CCCNC(=N)N)C(=O)N[C@@H](CCCNC(=N)N)C(=O)N[C@@H](CCCNC(=N)N)C(=O)N[C@@H](CCCNC(=N)N)C(=O)N[C@@H](CCCNC(=N)N)C(=O)N[C@@H](CCCNC(=N)N)C(=O)N[C@@H](CCCNC(=N)N)C(N)=O` [aR8] (Ac-HHRRRRRRRR-NH2; N-terminus and C-terminus assumed), for which the IC50 in data set [1] (24 h) is more than 100 µM.

In data set [1] (24 h), `CC(=O)NC(Cc1c[nH]cn1)C(=O)NC(CCCNC(=N)N)C(=O)NC(CCCNC(=N)N)C(=O)NC(CCCNC(=N)N)C(=O)NC(CCCNC(=N)N)C(=O)NC(CCCNC(=N)N)C(=O)NC(Cc1c[nH]cn1)C(N)=O` (centres unmarked) [cR5] (Ac-HRRRRRH-NH2; configuration not given here) returned a concentration for half-maximal inhibition (IC50) of more than 100 µM.

Regarding `CC(=O)N[C@@H](Cc1c[nH]cn1)C(=O)N[C@@H](CCCNC(=N)N)C(=O)N[C@@H](CCCNC(=N)N)C(=O)N[C@@H](CCCNC(=N)N)C(=O)N[C@@H](CCCNC(=N)N)C(=O)N[C@@H](CCCNC(=N)N)C(=O)N[C@@H](CCCNC(=N)N)C(=O)N[C@@H](CCCNC(=N)N)C(=O)N[C@@H](CCCNC(=N)N)C(=O)N[C@@H](Cc1c[nH]cn1)C(N)=O` [Ir-cR8] (Ac-HRRRRRRRRH-NH2), the half-life in data set [2] was less than 30 min.

On to `CC(=O)NC(Cc1c[nH]cn1)C(=O)NC(CCCNC(=N)N)C(=O)NC(CCCNC(=N)N)C(=O)NC(CCCNC(=N)N)C(=O)NC(CCCNC(=N)N)C(=O)NC(CCCNC(=N)N)C(=O)NC(CCCNC(=N)N)C(=O)NC(CCCNC(=N)N)C(=O)NC(CCCNC(=N)N)C(=O)NC(Cc1c[nH]cn1)C(N)=O` (centres unmarked) [cR8] (Ac-HRRRRRRRRH-NH2; configuration not given here), for which the IC50 in data set [1] (Hela cells, incubated for 24 h, read-out: IC50) is more than 100 µM.

Ac-KKKKHHKKKK-NH2 (also: coordinated with iridium complex from [Ir(ppy)2(H2O)2]OTf (1:1), also called Formula VII) [iridium-coordinated oligopolypeptide (Ir-mK8)]: the binding result in data set [3] is “binds”.

As for Ac-HKKKKKKKKH-NH2 (also: coordinated with iridium complex from [Ir(ppy)2(H2O)2]OTf (1:1), also called Formula VIII) [iridium-coordinated oligopolypeptide (Ir-cK8)], in data set [3], the binding result is reported as “binds”.

Take Ac-FWLFLRRRRRRRR-NH2 [CH3CO-FWLFLRRRRRRRR (SEQ ID NO: 1)-CONH2 (FR)]: the binding result in data set [3] was “binds”.

In the case of cholesterol-RRRRRRRR-NH2 [chol-RRRRRRRR (SEQ ID NO: 2)-CONH2 (CR)], the binding result in data set [3] is reported as “binds”.

These data come from patent US20240261365A1, “POLYPEPTIDE ALBUMIN NANOPARTICLE, PREPARATION METHOD THEREFOR, AND APPLICATION THEREOF” (SUZHOU INSTITUTE OF NANO-TECH AND NANO-BIONICS (SINANO) , …, priority 2020, published 2024).
